Results published in patent publication US4607010A, “Analytical process and means for measuring protease inhibitor capacity of serum” (priority 1984, dated 1986).

How the values were obtained:
Trypsin = test: Fixed time active-site titration of trypsin with DPCF (fluoride electrode); type: biochemical; conditions: for % Active: active concentration as percentage of total mass; for F^-: pH 5.5, two hours, room temperature, mean of duplicates, blank 10.60
Protocol: (§1) Diphenylcarbamyl fluoride is a specific inactivator for both α-chymotrypsin and trypsin. […] The fixed time pseudoequilibrium can nevertheless be used for the assay of both enzymes since the number of moles of F^- released is stoichiometrically related to the active concentration of either two enzymes.
The reagent solutions were the same as described in Example 1. The assay procedure was however modified in the following manner. Into the plastic beaker, 4.8 ml of assay buffer, […] of either enzyme solution and 100 μl of DPFC solution were added. A blank was prepared in a similar manner by substituting 100 μl of a 2 mM HCl for the enzyme solution. All solutions were left at room temperature for two hours. Following that the F^- concentration was then measured by the fluoride electrode. […]

Chymotrypsin = test: Fixed time active-site titration of chymotrypsin with DPCF (fluoride electrode); type: biochemical; conditions: for % Active: active concentration as percentage of total mass; for F^-: pH 5.5, two hours, room temperature, mean of duplicates, blank 10.60
Protocol: as §1
The reagent solutions were the same as described in Example 1. The assay procedure was however modified in the following manner. Into the plastic beaker, 4.8 ml of assay buffer, […] of either enzyme solution and 100 μl of DPFC solution were added. A blank was prepared in a similar manner by substituting 100 μl of a 2 mM HCl for the enzyme solution. All solutions were left at room temperature for two hours. Following that the F^- concentration was then measured by the fluoride electrode. […].
The difference in the relative-rates of F^- generation with chymotrypsin solution and chymotrypsin solution with serum was used to estimate serum protease inhibitor capacity. The assay buffer and DPCF solution were prepared as described in Example 5. Chymotrypsin solution 2.0 μM corresponding to 1.46 μM active mass was prepared by dilution of stock chymotrypsin solution as described in Example 1.

[1] = enzyme concentration 2 μM (mass)
[2] = enzyme concentration 5 μM (mass)
[3] = enzyme concentration 10 μM (mass)
[4] = mean over 2, 5 and 10 μM (mass)

In the case of Trypsin, the “% Active” value (Trypsin; [1]) is reported as 77.5%, the “F^-” value (Trypsin; [1]) is reported as 12.12 µM and the “% Active” value (Trypsin; [2]) is reported as 69.4%. For the same substance, the “F^-” value (Trypsin; [2]) was 14.00 µM, the “% Active” value (Trypsin; [3]) was 65.7% and the “F^-” value (Trypsin; [3]) was 17.12 µM. The “% Active Mean ± Stand. Dev.” value (Trypsin; [4]) was 70.9 ± 4.9%.
For Chymotrypsin, the active concentration (Chymotrypsin; chymotrypsin solution 2.0 μM (mass)) was 1.46 µM, the “% Active” value (Chymotrypsin; [1]) was 80.0% and the “F^-” value (Chymotrypsin; [1]) was 12.20 µM. The “% Active” value (Chymotrypsin; [2]) was 72.2%, the “F^-” value (Chymotrypsin; [2]) was 14.21 µM and the “% Active” value (Chymotrypsin; [3]) was 70.4%. For the same substance, the “F^-” value (Chymotrypsin; [3]) was 17.64 µM and the “% Active Mean ± Stand. Dev.” value (Chymotrypsin; [4]) was 74.2 ± 4.2%.
